What follows are compounds tested on Bmi-1 (assay: Sandwich ELISA Assay (Bmi-1 ELISA) in HT-1080 cells).
Type: cell-based
Experimental: Cell Seeding and Compound Treatment (Day 1):
HT-1080 cells were seeded at 8000 cells/well (50 μL) in 96-well tissue culture plates. After the cells became adherent (3-4 hours), 2× diluted stocks of test compounds in 50 μL DMEM containing 1% DMSO (final DMSO concentration was 0.5%) were added and the plates were incubated at 37° C. under 5% CO2 for 40-48 hours.
ELISA Plate First Antibody Preparation (Day 2):
The First Antibody (Millipore Mouse, monoclonal to mouse Bmi-1, clone F6, catalog #05-637) diluted to 2 μg/mL in PBS was added (100 μL) to each well of a Nunc MaxiSorp 96-well ELISA plate. The plate was covered with a plate seal and allowed to stand overnight.
Cell Lysate Preparation (Day 3):
Fresh 1× Lysis buffer was prepared on the day of the assay as follows: 1 mM EDTA, 150 mM NaCl, 0.5% Triton-X 100, 10 mM NaF, 20 mM B-Glycerophosphate, 1 mM DTT (in PBS, pH 7.2-7.4) and 1× HALT protease inhibitor cocktail (Pierce #78410).
The 1× Lysis Buffer (40 μL) was added to each well and the plate was shaken for 5-10 minutes on an orbital shaker to allow cell lysis, then diluent (1% BSA in PBS in 0.5% NP40) (100 μL) was added to each well.
A standard curve was prepared at the following Bmi-1 concentrations: 8000, 4000, 2000, 1000, 500, 250, 125, 0 pg/mL The Bmi-1 Recombinant Protein Standard (Novus Biologicals PCGF4 Recombinant Protein (P01), catalog #H00000648-P01) used to prepare the standard curve was stored at −80° C. On first thaw, the Bmi-1 Recombinant Protein Standard was diluted to […] in Blocking Buffer (1% BSA in PBS; BSA: Fisher Scientific Catalog #1600-100). Aliquots were taken and refrozen at −80° C. The aliquots may be kept at 4° C. and reused after first thaw, but only within 1-2 weeks. The Bmi-1 Recombinant Protein Standard contains a GST-fusion tag that appears around 70 Kda on Western Blot.
The prepared ELISA plate was washed 3× with Wash Buffer (0.05% Tween-20 in PBS). The final wash was removed from the plate and the plate was blotted dry. Blocking Buffer (300 μL) (1% BSA in PBS) was added to each well. The plate was covered with a plate seal and incubated at room temperature for 1 hour. The blocked plate was washed 3× with Wash Buffer, then the final wash was removed and the plate was blotted dry. The previously prepared samples and standards were added (100 μL/well) and the plate was covered with a plate seal and incubated at 4° C. overnight.
The prepared ELISA plate was removed from 4° C., incubated at room temperature for 30 minutes, then washed and blotted dry as previously described for Day 3. The Second Antibody (Cell Signaling Rabbit anti-Bmi-1, Cat #2830) diluted to 1:600 in Blocking Buffer was added (100 μL) to each well, except as needed for background control wells. The plate was covered with a plate seal and incubated for 1.5 hrs at room temperature.
The ELISA plate was washed and blotted dry as previously described. The Third Antibody (Cell Signaling HRP conjugated anti-rabbit IgG (CellSignaling, Cat #:7074) diluted to 1:300 in Blocking Buffer was added (100 μL) to each well, except as needed for background control wells. The plate was incubated for 1 hr at room temperature.
The plate was washed and blotted dry as previously described, then prepared TMB substrate (TMB substrate kit, Pierce catalog #34021) (prepared by mixing kit reagents 1:1) (100 μL) was added per well. The plate was incubated for 20-30 minutes at room temperature in the dark, then Stop Solution (2 M sulfuric acid in water) (50 μL) was added per well. The plates were read at OD450 (experimental) and OD570 (reference).

`Cc1nc2ccc(Cl)cc2n1-c1nc(N)c(F)c(Nc2ccc(OC(F)F)cc2)n1` [Cpd 161, 2-(6-chloro-2-methyl-1H-benzimidazol-1-yl)-N-[4-(difluoromethoxy)phenyl]-5-fluoropyrimidine-4,6-diamine] and `Cc1nc2cc(F)ccc2n1-c1nc(N)c(F)c(Nc2ccc(OC(F)F)cc2)n1` [Cpd 113, N-[4-(difluoromethoxy)phenyl]-5-fluoro-2-(5-fluoro-2-methyl-1H-benzimidazol-1-yl)pyrimidine-4,6-diamine] fall in the same range of EC50: 10 to 100 nM for the first, 10 to 100 nM for the second.

Compared with `Cc1ccc(Nc2nc(-n3c(C)nc4cc([N+](=O)[O-])ccc43)nc(N)c2F)cc1` [Cpd 254, 5-fluoro-2-(2-methyl-5-nitro-1H-benzimidazol-1-yl)-N-(4-methylphenyl)pyrimidine-4,6-diamine], `Cc1nc2ccc([N+](=O)[O-])cc2n1-c1nc(N)c(F)c(Nc2ccc(C(F)(F)F)cc2)n1` [Cpd 236, 5-fluoro-2-(2-methyl-6-nitro-1H-benzimidazol-1-yl)-N-[4-(trifluoromethyl)phenyl]pyrimidine-4,6-diamine] is higher in EC50: 10 to 100 nM for the first, 100 to 3000 nM for the second.

First: Cc1nc2cc(F)ccc2n1-c1nc(N)c(F)c(Nc2ccc(OC(F)(F)F)cc2)n1 [Cpd 283, 5-fluoro-2-(5-fluoro-2-methyl-1H-benzimidazol-1-yl)-N-[4-(trifluoromethoxy)phenyl]pyrimidine-4,6-diamine]
Second: Cc1nc2ccc(Cl)cc2n1-c1nc(N)c(F)c(Nc2ccc(C(F)(F)F)cc2)n1 [Cpd 160, 2-(6-chloro-2-methyl-1H-benzimidazol-1-yl)-5-fluoro-N-[4-(trifluoromethyl)phenyl]pyrimidine-4,6-diamine]
The EC50 of the first is higher: 100 to 3000 nM for the first, 10 to 100 nM for the second. The second is the more potent here.

`Fc1ccc2nc(C(F)(F)F)c(-c3nccc(Nc4ccc(C(F)(F)F)cc4)n3)n2c1` [Cpd 54, 2-[6-fluoro-2-(trifluoromethyl)imidazo[1,2-a]pyridin-3-yl]-N-[4-(trifluoromethyl)phenyl]pyrimidin-4-amine] and `Fc1ccc2nc(C(F)(F)F)c(-c3nccc(Nc4ccc(OC(F)F)cc4)n3)n2c1` [Cpd 55, N-[4-(difluoromethoxy)phenyl]-2-[6-fluoro-2-(trifluoromethyl)imidazo[1,2-a]pyridin-3-yl]pyrimidin-4-amine] fall in the same range of EC50: 100 to 3000 nM for the first, 100 to 3000 nM for the second.

`Cc1nc2ccc(F)cn2c1-c1nc(N)cc(Nc2ccc(C(F)(F)F)cc2)n1` [Cpd 68, 2-(6-fluoro-2-methylimidazo[1,2-a]pyridin-3-yl)-N-[4-(trifluoromethyl)phenyl]pyrimidine-4,6-diamine] and `Cc1nc2c(F)cc(F)cc2n1-c1nc(N)cc(Nc2ccc(C(F)(F)F)cc2)n1` [Cpd 88, 2-(4,6-difluoro-2-methyl-1H-benzimidazol-1-yl)-N-[4-(trifluoromethyl)phenyl]pyrimidine-4,6-diamine] fall in the same range of EC50: 10 to 100 nM for the first, 10 to 100 nM for the second.

First: Cc1nc2cc(Cl)ccc2n1-c1nc(N)cc(Nc2ccc(C(F)(F)F)c(F)c2)n1 [Cpd 98, 2-(5-chloro-2-methyl-1H-benzimidazol-1-yl)-N-[3-fluoro-4-(trifluoromethyl)phenyl]pyrimidine-4,6-diamine]
Second: Cc1nc2cc(F)c(F)cc2n1-c1nc(N)cc(Nc2ccc(C(F)(F)F)cc2)n1 [Cpd 64, 2-(5,6-difluoro-2-methyl-1H-benzimidazol-1-yl)-N-[4-(trifluoromethyl)phenyl]pyrimidine-4,6-diamine]
The EC50 of the first is higher: 100 to 3000 nM for the first, 10 to 100 nM for the second. The second is the more potent here.

Compared with `Cc1nc2ccccc2n1-c1nc(N)c(Cl)c(Nc2ccc(C(F)(F)F)cc2)n1` [Cpd 166, 5-chloro-2-(2-methyl-1H-benzimidazol-1-yl)-N-[4-(trifluoromethyl)phenyl]pyrimidine-4,6-diamine], `Cc1nc2ccccc2n1-c1nc(N)c(F)c(Nc2ccc(C(F)(F)F)cc2)n1` [Cpd 95, 5-fluoro-2-(2-methyl-1H-benzimidazol-1-yl)-N-[4-(trifluoromethyl)phenyl]pyrimidine-4,6-diamine] is lower in EC50: 100 to 3000 nM for the first, 10 to 100 nM for the second.

First: Cc1nn2ccccc2c1-c1nc(N)c(F)c(Nc2ccc(OC(F)F)cc2)n1 [Cpd 173, N-[4-(difluoromethoxy)phenyl]-5-fluoro-2-(2-methylpyrazolo[1,5-a]pyridin-3-yl)pyrimidine-4,6-diamine]
Second: COCc1nc2ccccc2n1-c1nc(N)c(F)c(Nc2ccc(OC(F)F)cc2)n1 [Cpd 216, N-[4-(difluoromethoxy)phenyl]-5-fluoro-2-[2-(methoxymethyl)-1H-benzimidazol-1-yl]pyrimidine-4,6-diamine]
The EC50 of the first is higher: 100 to 3000 nM for the first, 10 to 100 nM for the second.

`FC(F)(F)c1nc2ccccn2c1-c1nccc(Nc2ccc3c(c2)OCO3)n1` [Cpd 28, N-(1,3-benzodioxol-5-yl)-2-[2-(trifluoromethyl)imidazo[1,2-a]pyridin-3-yl]pyrimidin-4-amine] and `FC(F)Oc1ccc(Nc2ccnc(-c3c(C(F)(F)F)nc4ccccn34)n2)cc1` [Cpd 11, N-[4-(difluoromethoxy)phenyl]-2-[2-(trifluoromethyl)imidazo[1,2-a]pyridin-3-yl]pyrimidin-4-amine] fall in the same range of EC50: 100 to 3000 nM for the first, 100 to 3000 nM for the second.

Compared with `Cn1c(C(F)(F)F)c(-c2nccc(Nc3ccc(Br)cc3)n2)c2cc(Cl)ccc21` [Cpd 25, N-(4-bromophenyl)-2-[5-chloro-1-methyl-2-(trifluoromethyl)-1H-indol-3-yl]pyrimidin-4-amine], `Cc1nc2c(F)cccc2n1-c1nc(N)c(F)c(Nc2ccc(C(F)(F)F)cc2)n1` [Cpd 134, 5-fluoro-2-(4-fluoro-2-methyl-1H-benzimidazol-1-yl)-N-[4-(trifluoromethyl)phenyl]pyrimidine-4,6-diamine] is lower in EC50: 100 to 3000 nM for the first, 10 to 100 nM for the second. The second is the more potent here.

First: CCc1nc2ccc(F)cc2n1-c1nc(N)c(F)c(Nc2ccc(OC(F)F)cc2)n1 [Cpd 165, N-[4-(difluoromethoxy)phenyl]-2-(2-ethyl-6-fluoro-1H-benzimidazol-1-yl)-5-fluoropyrimidine-4,6-diamine]
Second: Cc1nc2c(F)cc(F)cc2n1-c1nc(N)c(F)c(Nc2ccc(OC(F)F)cc2)n1 [Cpd 131, N-[4-(difluoromethoxy)phenyl]-2-(4,6-difluoro-2-methyl-1H-benzimidazol-1-yl)-5-fluoropyrimidine-4,6-diamine]
The EC50 of the first is lower: 1 to 10 nM for the first, 10 to 100 nM for the second. The first is the more potent here.

First: Nc1nc(-n2c(C3CC3)nc3c(F)cccc32)nc(Nc2ccc(OC(F)F)c(F)c2)c1F [Cpd 142, 2-(2-cyclopropyl-4-fluoro-1H-benzimidazol-1-yl)-N-[4-(difluoromethoxy)-3-fluorophenyl]-5-fluoropyrimidine-4,6-diamine]
Second: Cc1nc2ncccc2n1-c1nc(N)c(F)c(Nc2ccc(OC(F)F)c(F)c2)n1 [Cpd 139, N-[4-(difluoromethoxy)-3-fluorophenyl]-5-fluoro-2-(2-methyl-1H-imidazo[4,5-b]pyridin-1-yl)pyrimidine-4,6-diamine]
The EC50 of the first is lower: 10 to 100 nM for the first, 100 to 3000 nM for the second.

`Cc1nc2ncc(Cl)cc2n1-c1nc(N)c(F)c(Nc2ccc(OC(F)F)c(F)c2)n1` [Cpd 116, 2-(6-chloro-2-methyl-1H-imidazo[4,5-b]pyridin-1-yl)-N-[4-(difluoromethoxy)-3-fluorophenyl]-5-fluoropyrimidine-4,6-diamine] and `CCc1nc2c(F)cc(F)cc2n1-c1nc(N)c(F)c(Nc2ccc(OC(F)F)c(F)c2)n1` [Cpd 130, N-[4-(difluoromethoxy)-3-fluorophenyl]-2-(2-ethyl-4,6-difluoro-1H-benzimidazol-1-yl)-5-fluoropyrimidine-4,6-diamine] fall in the same range of EC50: 10 to 100 nM for the first, 10 to 100 nM for the second.

`Cc1nc2ccccc2n1-c1nc(N)cc(Nc2ccc(OC(F)F)cc2)n1` [Cpd 234, N-[4-(difluoromethoxy)phenyl]-2-(2-methyl-1H-benzimidazol-1-yl)pyrimidine-4,6-diamine] showed an EC50 of 10 to 100 nM.
